Assays:
Hepa1-6 cells = assay: Cell survival rate (EZ-CYTOX), mouse liver cancer cell line; assay type: cell-based; settings: 10 to 60 μM, 24 hours, FIG. 1b
Protocol: (§1) The ginsenoside F2 prepared in Example 1 was treated to Hep3B cells, a human liver cancer cell line, Hepa1-6 cells, a mouse liver cancer cell line, and mouse normal hepatocytes at various concentrations (10 to 60 μM). After 24 hours, the survival rate of the cells was measured using EZ-CYTOX (Daeil Lab Service, Korea), which is used to measure the cell survival rate, according to the experimental method provided by the manufacturer.

Hep3B cells = assay: Cell survival rate (EZ-CYTOX), human liver cancer cell line; assay type: cell-based; settings: 10 to 60 μM, 24 hours, FIG. 1a
Protocol: as §1

[1] = system: liver cancer-induced mice; assay: Liver histology (H&E) and flow cytometry of liver immune cells in liver cancer-induced mice; assay type: in vivo, mouse; settings: vs vehicle-treated group
Protocol: (§2) Diethylnitrosamine (DEN), a hepatocarcinogen, was injected intraperitoneally into 14-day-old male mice at a concentration of 20 mg/kg to induce the formation of liver cancer. A vehicle (olive oil) or ginsenoside F2 (50 mg/kg) was treated three times a week from 20 weeks of age, and then 20 weeks later, the mice were sacrificed to confirm the inhibition of liver cancer formation.
The mice sacrificed in Example 3-1 above were cut open ventrally to remove the liver, and then H&E ([…] and eosin) staining was performed to observe the histological changes of the liver.
In order to specifically measure the activity of the immune cells, the immune cells were isolated from the removed liver, and the stained cells were analyzed via a flow cytometer (LSRII, BD bioscience) using the markers shown in Table 1.

[2] = system: liver cancer-induced mice; assay: Diethylnitrosamine (DEN)-induced liver cancer formation in mice: size, number, weight of cancer tissues; assay type: in vivo, mouse; settings: 50 mg/kg three times a week for 20 weeks, vs vehicle-treated group
Protocol: as §2
The mice sacrificed in Example 3-1 above were cut open ventrally to remove the liver. Then, the size, number, and weight of the cancer tissues of the vehicle-treated group and the ginsenoside F2-treated group were compared.

mouse normal hepatocytes = assay: Cell survival rate (EZ-CYTOX), normal hepatocytes; assay type: cell-based; settings: 10 to 60 μM, 24 hours, FIG. 1c
Protocol: as §1

[3] = system: liver cancer-induced mice; assay: Serum ALT and AST in liver cancer-induced mice (VetTEST); assay type: in vivo, mouse; settings: 50 mg/kg three times a week for 20 weeks, vs vehicle-treated group
Protocol: as §2
Blood was collected from the abdominal aorta of the mice sacrificed in Example 3-1 above and centrifuged at 3,300 rpm for 10 minutes using a centrifuge, and then the serum was isolated only. Subsequently, the alanine aminotransferase (ALT), aspartate aminotransferase (AST) and triglyceride were measured by a VetTEST® (IDEXX, USA) according to the experimental method provided by the manufacturer using a kit provided by IDEXX Laboratories (USA).

[4] = system: human liver cancer cell line (Hep3B); assay: Cell death by phase contrast microscopy and DAPI/TUNEL staining; assay type: cell-based; settings: 10 to 60 μM, 24 hours
Protocol: The cell-killing effect of ginsenoside F2 on the human liver cell line (Hep3B) was confirmed using a phase contrast microscope and a fluorescence microscope.
Specifically, the ginsenoside F2 prepared in Example 1 was treated to the human liver cancer cell line (Hep3B) at various concentrations (10 to 60 μM), and after 24 hours, the state of the cells was observed under the phase contrast microscope. Further, the cells were stained using DAPI (4′,6-diamidino-2-phenylindole, Vector laboratory, USA) and TUNEL (terminal deoxyribonucleotidyl transferase mediated dUTP nick end labeling, Roche life science, USA). The staining was carried out according to the method provided by the manufacturer, and the degree of staining was observed under the fluorescence microscope.

[5] = system: mouse liver cancer cell line (Hepa1-6); assay: Genomic DNA fragmentation by gel electrophoresis; assay type: cell-based; settings: Hepa1-6, 24 hours, FIG. 3
Protocol: The cell-killing effect of ginsenoside F2 on the mouse liver cancer cell line (Hepa1-6) was confirmed by confirming the degree of DNA degradation.
Specifically, the ginsenoside F2 prepared in Example 1 was treated to the mouse liver cancer cell line (Hepa1-6) at various concentrations ([…]). After 24 hours, the cells were harvested, and the genomic DNA was extracted using a genomic DNA extraction kit (iNtRON, USA) according to the experimental method provided by the manufacturer, and subsequently, a gel electrophoresis was carried out.

[6] = 50 mg/kg three times a week for 20 weeks, FIG. 6a

CC(C)=CCC[C@](C)(O[C@@H]1O[C@H](CO)[C@@H](O)[C@H](O)[C@H]1O)[C@H]1CC[C@]2(C)[C@@H]1[C@H](O)C[C@@H]1[C@@]3(C)CC[C@H](O[C@@H]4O[C@H](CO)[C@@H](O)[C@H](O)[C@H]4O)C(C)(C)[C@@H]3CC[C@]12C [ginsenoside F2]
survival rate of mouse liver cancer cell line (Hepa1-6) (Hepa1-6 cells): decreased depending on the concentration of ginsenoside F2
survival rate of human liver cancer cell line (Hep3B) (Hep3B cells): decreased depending on the concentration of ginsenoside F2
formation of liver cancer (H&E histology) [1, 6]: inhibited
infiltration of immune cells near the liver cancer tissues (H&E) [1, 6]: increased
number of CD8 T cells in liver ([1]; flow cytometry, FIG. 6b): increase
number of macrophages in liver ([1]; flow cytometry, FIG. 6b): increase
number of natural killer T cells in liver ([1]; flow cytometry, FIG. 6b): increase
body weight [2]: no difference
number of cancer tissues [2]: reduced more than twice
size of cancer tissues [2]: significantly reduced
weight of liver tissues [2]: reduced
survival rate of mouse normal hepatocytes (mouse normal hepatocytes): almost no change was observed
serum ALT value ([3]; FIG. 5a): reduced
serum AST value ([3]; FIG. 5b): reduced
cell death under phase contrast microscope ([4]; FIG. 2a): cell death of human liver cancer cell line (Hep3B) was induced
number of cells stained to DAPI ([4]; fluorescence microscope): no difference
number of cells stained to TUNEL ([4]; fluorescence microscope, FIGS. 2a and 2b): increased depending on the concentration of ginsenoside F2
fragmented genomic DNA [5]: increased with increasing concentration of ginsenoside F2

From patent US9943534B2, “Composition for preventing or treating liver cancer containing ginsenoside F2” (INTELLIGENT SYNTHETIC BIOLOGY CENTER, priority 2016, dated 2018)
